Measured values: ChEMBL document CHEMBL1201861, “Genomics of Drug Sensitity in Cancer screening data, Wellcome Trust Sanger Institute”

Tests used:
Assay in all cases: cells
CW-2 = type: functional, cell-based, Homo sapiens; conditions: Homo sapiens, CW-2;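 further: growth inhibition of CW-2 cells, read out by a cell viability assay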
Description: SANGER: Inhibition of human CW-2 cell growth in a cell viability assay.

D-542MG = type: functional, cell-based, Homo sapiens; conditions: Homo sapiens, D-542MG
Description: SANGER: Inhibition of human D-542MG cell growth in a cell viability assay.

EW-3 = type: functional, cell-based; conditions: Homo sapiens;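 further: cell viability assay read-out, IC50 reflects inhibition of growth of the EW-3 cells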
Description: SANGER: Inhibition of human EW-3 cell growth in a cell viability assay.

GAK = type: functional, cell-based, Homo sapiens; conditions: Homo sapiens, GAK;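 further: cell growth inhibition read out by a cell viability assay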
Description: SANGER: Inhibition of human GAK cell growth in a cell viability assay.

GOTO = type: functional, cell-based, Homo sapiens; conditions: Homo sapiens, GOTO;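 further: growth inhibition of GOTO cells, read out by a cell viability assay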
Description: SANGER: Inhibition of human GOTO cell growth in a cell viability assay.

HT-144 = type: functional, cell-based, Homo sapiens; conditions: Homo sapiens, HT-144
Description: SANGER: Inhibition of human HT-144 cell growth in a cell viability assay.

KP-N-YN = type: functional, cell-based; conditions: Homo sapiens;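 further: growth inhibition of KP-N-YN cells, read out with a cell viability assay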
Description: SANGER: Inhibition of human KP-N-YN cell growth in a cell viability assay.

L-363 = type: functional, cell-based; conditions: Homo sapiens
Description: SANGER: Inhibition of human L-363 cell growth in a cell viability assay.

L-428 = type: functional, cell-based; conditions: Homo sapiens
Description: SANGER: Inhibition of human L-428 cell growth in a cell viability assay.

LB996-RCC = type: functional, cell-based; conditions: Homo sapiens
Description: SANGER: Inhibition of human LB996-RCC cell growth in a cell viability assay.

LS-513 = type: functional, cell-based, Homo sapiens; conditions: Homo sapiens, LS-513
Description: SANGER: Inhibition of human LS-513 cell growth in a cell viability assay.

ML-2 = type: functional, cell-based; conditions: Homo sapiens;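 further: growth inhibition of ML-2 cells, measured with a cell viability readout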
Description: SANGER: Inhibition of human ML-2 cell growth in a cell viability assay.

NB10 = type: functional, cell-based, Homo sapiens; conditions: Homo sapiens, NB10;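 further: growth inhibition of NB10 cells, read out by a cell viability assay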
Description: SANGER: Inhibition of human NB10 cell growth in a cell viability assay.

NB13 = type: functional, cell-based, Homo sapiens; conditions: Homo sapiens, NB13;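 further: cell viability readout measuring growth inhibition of human NB13 cells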
Description: SANGER: Inhibition of human NB13 cell growth in a cell viability assay.

NB6 = type: functional, cell-based, Homo sapiens; conditions: Homo sapiens, NB6
Description: SANGER: Inhibition of human NB6 cell growth in a cell viability assay.

NB69 = type: functional, cell-based, Homo sapiens; conditions: Homo sapiens, NB69;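 further: growth inhibition of NB69 cells, determined by a cell viability assay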
Description: SANGER: Inhibition of human NB69 cell growth in a cell viability assay.

NCI-H1650 = type: functional, cell-based, Homo sapiens; conditions: Homo sapiens, NCI-H1650;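 further: growth inhibition of human NCI-H1650 cells measured by a cell viability assay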
Description: SANGER: Inhibition of human NCI-H1650 cell growth in a cell viability assay.

NCI-H510A = type: functional, cell-based; conditions: Homo sapiens;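 further: growth inhibition of NCI-H510A cells, read out with a cell viability assay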
Description: SANGER: Inhibition of human NCI-H510A cell growth in a cell viability assay.

NCI-H526 = type: functional, cell-based; conditions: Homo sapiens;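 further: growth inhibition of the human NCI-H526 cell line, measured by a cell viability assay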
Description: SANGER: Inhibition of human NCI-H526 cell growth in a cell viability assay.

NCI-H69 = type: functional, cell-based; conditions: Homo sapiens;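 further: growth inhibition of the cell line, read out with a cell viability assay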
Description: SANGER: Inhibition of human NCI-H69 cell growth in a cell viability assay.

OMC-1 = type: functional, cell-based, Homo sapiens; conditions: Homo sapiens, OMC-1;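 further: growth inhibition of the OMC-1 cell line, measured by a cell viability assay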
Description: SANGER: Inhibition of human OMC-1 cell growth in a cell viability assay.

QIMR-WIL = type: functional, cell-based; conditions: Homo sapiens;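 further: growth inhibition of QIMR-WIL cells, read out with a cell viability assay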
Description: SANGER: Inhibition of human QIMR-WIL cell growth in a cell viability assay.

SCH = type: functional, cell-based, Homo sapiens; conditions: Homo sapiens, SCH;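 further: growth inhibition of human SCH cells, read out in a cell viability assay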
Description: SANGER: Inhibition of human SCH cell growth in a cell viability assay.

CAS-1 = type: functional, cell-based, Homo sapiens; conditions: Homo sapiens, CAS-1;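 further: growth inhibition of CAS-1 cells, measured with a cell viability assay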
Description: SANGER: Inhibition of human CAS-1 cell growth in a cell viability assay.

COLO-320-HSR = type: functional, cell-based; conditions: Homo sapiens;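 further: growth inhibition of COLO-320-HSR cells, determined with a cell viability assay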
Description: SANGER: Inhibition of human COLO-320-HSR cell growth in a cell viability assay.

SMILES: C=C1C(=O)O[C@@H]2C3O[C@]3(C)CC/C=C(\C)CC[C@@H]12 (stereo not given in full)
- IC50 (CW-2): > 5 µM
- IC50 (D-542MG): > 5 µM
- IC50 (EW-3): > 5 µM
- IC50 (GAK): > 5 µM
- IC50 (GOTO): > 5 µM
- IC50 (HT-144): > 5 µM
- IC50 (KP-N-YN): > 5 µM
- IC50 (L-363): > 5 µM
- IC50 (L-428): > 5 µM
- IC50 (LB996-RCC): > 5 µM
- IC50 (LS-513): > 5 µM
- IC50 (ML-2): > 5 µM
- IC50 (NB10): > 5 µM
- IC50 (NB13): > 5 µM
- IC50 (NB6): > 5 µM
- IC50 (NB69): > 5 µM
- IC50 (NCI-H1650): > 5 µM
- IC50 (NCI-H510A): > 5 µM
- IC50 (NCI-H526): > 5 µM
- IC50 (NCI-H69): > 5 µM
- IC50 (OMC-1): > 5 µM
- IC50 (QIMR-WIL): > 5 µM
- IC50 (SCH): > 5 µM
- IC50 (CAS-1): > 5 µM
- IC50 (COLO-320-HSR): > 5 µM

SMILES: CCc1nc(N)nc(N)c1-c1ccc(Cl)cc1 [PYRIMETHAMINE]
- IC50 (CW-2): > 20 µM
- IC50 (D-542MG): > 20 µM
- IC50 (EW-3): > 20 µM
- IC50 (GAK): > 20 µM
- IC50 (GOTO): > 20 µM
- IC50 (HT-144): 6.8 µM
- IC50 (KP-N-YN): > 20 µM
- IC50 (L-363): > 20 µM
- IC50 (L-428): > 20 µM
- IC50 (LB996-RCC): > 20 µM
- IC50 (LS-513): > 20 µM
- IC50 (ML-2): 11.5 µM
- IC50 (NB10): > 20 µM
- IC50 (NB13): > 20 µM
- IC50 (NB6): > 20 µM
- IC50 (NB69): > 20 µM
- IC50 (NCI-H1650): > 20 µM
- IC50 (NCI-H510A): > 20 µM
- IC50 (NCI-H526): 7.92 µM
- IC50 (NCI-H69): > 20 µM
- IC50 (OMC-1): > 20 µM
- IC50 (QIMR-WIL): 6.61 µM
- IC50 (SCH): 16.9 µM
- IC50 (CAS-1): > 20 µM
- IC50 (COLO-320-HSR): 4 µM
